The values below come from patent US10357493B2, “Metalloenzyme inhibitor compounds” (Selenity Therapeutics (Bermuda), Ltd., priority 2017, dated 2019).

Where two headings read alike, the source gives them in different places.

One data set addresses HDAC1 (Homo sapiens (Human), UniProt Q13547). Nature of the data set: HDAC1 enzymatic assay. In kind it is biochemical. The method in brief:
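HDAC1 activity was measured in duplicate 50 μl reactions containing 0.5 ng HDAC1, 10 uM of HDAC substrate, and test compound in buffer (50 mM Tris-HCl, pH 7.4, 137 mM NaCl, 2.7 mM KCl, 0.05% Tween 20, 5 μg BSA) with 1% DMSO, incubated 17 hours at room temperature. HDAC Developer was then added for 20 minutes and fluorescence read at 360/460 nm.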

Another data set deals with HDAC2 (Homo sapiens (Human), UniProt Q92769). Put plainly: HDAC2 enzymatic assay. It counts as biochemical. Particulars: selectivity profile; read-out: HDAC Enzyme IC50, HDAC 2. The protocol:
(§1) All enzymatic reactions were conducted in duplicate at room temperature for 17 hours in a 50 μl mixture containing HDAC assay buffer (50 mM Tris-HCl, pH 7.4, 137 mM NaCl, 2.7 mM KCl, 0.05% Tween 20, 5 μg BSA), an HDAC substrate, an HDAC enzyme, and a test compound. Compound dilution was prepared ten-fold higher than the final concentration of the compounds with 10% DMSO in HDAC assay buffer and 5 μl of the dilution was added to a 50 μl reaction so that the final concentration of DMSO is 1% in all of reactions. After enzymatic reactions, 50 μl of HDAC Developer was added to each well and the plate was incubated at room temperature for an additional 20 minutes. Fluorescence intensity was measured at an excitation of 360 nm and an emission of 460 nm using a Tecan Infinite M1000 or Biotek Synergy microplate reader.
(§2) The fluorescent intensity data were analyzed using the computer software, Graphpad Prism. In the absence of the compound, the fluorescent intensity (Ft) in each data set was defined as 100% activity. In the absence of HDAC, the fluorescent intensity (Fb) in each data set was defined as 0% activity. The percent activity in the presence of each compound was calculated according to the following equation: % activity=(F−Fb)/(Ft−Fb), where F=the fluorescent intensity in the presence of the compound.
(§3) The values of % activity versus a series of compound concentrations were then plotted using non-linear regression analysis of Sigmoidal dose-response curve generated with the equation Y=B+(T−B)/1+10((Log EC50−X)×Hill Slope), where Y=percent activity, B=minimum percent activity, T=maximum percent activity, X=logarithm of compound and Hill Slope=slope factor or Hill coefficient. The IC50 value was determined by the concentration causing a half-maximal percent activity.
(§4) HDAC1 enzymatic assays contained 0.5 ng HDAC1 and 10 uM of HDAC substrate. HDAC2 enzymatic assays contained 0.5 ng HDAC2 and 10 uM of HDAC substrate. HDAC3 enzymatic assays contained 0.4 ng HDAC3/NCOR2 and 10 uM of HDAC substrate. HDAC4 enzymatic assays contained 0.02 ng HDAC4 and 2 uM of HDAC substrate. HDAC5 enzymatic assays contained 0.5 ng HDAC5 and 2 uM of HDAC substrate. HDAC6 enzymatic assays contained 2 ng HDAC6 and 10 uM of HDAC substrate. HDAC7 enzymatic assays contained 0.05 ng HDAC7 and 2 uM of HDAC substrate. HDAC8 enzymatic assays contained 5 ng HDAC8 and 2 uM of HDAC substrate. HDAC9 enzymatic assays contained 1 ng HDAC9 and 2 uM of HDAC substrate. HDAC10 enzymatic assays contained 75 ng HDAC10 and 10 uM of HDAC substrate. HDAC11 enzymatic assays contained 5 ng HDAC11 and 2 uM of HDAC substrate.

For a further data set, the target named is HDAC3/NCOR2 (Homo sapiens (Human), UniProt O15379). Nature of the data set: HDAC3 enzymatic assay. In kind it is biochemical. As to conditions: selectivity profile; read-out: HDAC Enzyme IC50, HDAC 3. The protocol: as §1, §2, §3, §4
The next data set addresses HDAC4 (Homo sapiens (Human), UniProt P56524). Put plainly: HDAC4 enzymatic assay. Particulars: selectivity profile; read-out: HDAC Enzyme IC50, HDAC 4. In kind it is biochemical. On the procedure: as §1, §2, §3, §4
Another data set has as its target HDAC5 (Homo sapiens (Human), UniProt Q9UQL6). Nature of the data set: HDAC5 enzymatic assay. It counts as biochemical. As to conditions: selectivity profile; read-out: HDAC Enzyme IC50, HDAC 5. On the procedure: as §1, §2, §3, §4
In the next data set the target is HDAC6 (Homo sapiens (Human), UniProt Q9UBN7). Nature of the data set: HDAC6 enzymatic assay. In kind it is biochemical. In outline: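 Human HDAC6 activity was measured in duplicate 50 μl reactions holding 2 ng HDAC6, 10 uM of HDAC substrate and test compound in HDAC assay buffer (50 mM Tris-HCl, pH 7.4, 137 mM NaCl, 2.7 mM KCl, 0.05% Tween 20, 5 μg BSA) with 1% DMSO, for 17 hours at room temperature. HDAC Developer was added for 20 minutes before reading fluorescence at 360/460 nm.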

A further data set concerns the target HDAC7 (Homo sapiens (Human), UniProt Q8WUI4). Nature of the data set: HDAC7 enzymatic assay. It counts as biochemical. As to conditions: selectivity profile; read-out: HDAC Enzyme IC50, HDAC 7. On the procedure:
as §1, §2, §3, §4

The target in a further data set is HDAC8 (Homo sapiens (Human), UniProt Q9BY41). Nature of the data set: HDAC8 enzymatic assay. It counts as biochemical. Particulars: selectivity profile; read-out: HDAC Enzyme IC50, HDAC 8. On the procedure: as §1, §2, §3, §4
For the next data set, the target named is HDAC9 (Homo sapiens (Human), UniProt Q9UKV0). Nature of the data set: HDAC9 enzymatic assay. Particulars: selectivity profile; read-out: HDAC Enzyme IC50, HDAC 9. In kind it is biochemical. The protocol:
as §1, §2, §3, §4

Another data set addresses HDAC10 (Homo sapiens (Human), UniProt Q969S8). Put plainly: HDAC10 enzymatic assay. It counts as biochemical. As to conditions: selectivity profile; read-out: HDAC Enzyme IC50, HDAC 10. On the procedure:
as §1, §2, §3, §4

In the next data set the target is HDAC11 (Homo sapiens (Human), UniProt Q96DB2). Put plainly: HDAC11 enzymatic assay. In kind it is biochemical. As to conditions: selectivity profile; read-out: HDAC Enzyme IC50, HDAC 11. On the procedure:
as §1, §2, §3, §4

Data set [1] is described as follows: Mouse Pharmacokinetics, oral single dose. As to conditions: male, Swiss Albino, plasma, 5 mg/kg, formulation by footnote: a 20% CremEL in H20, b 1% CMC in water, c 2% DMSO, 0.2% Tween80, 97.8% of 1% CMC. In kind it is in vivo, male Swiss Albino mice. The protocol: Example 187: Mouse Pharmacokinetics
A dose of 5 mg/kg in an appropriate formulation was administered by oral gavage to fasted male Swiss Albino mice (n=3), and the plasma was collected at 0, 0.25, 0.5, 1, 2, 4, 8, and 24 h. Plasma levels were measured by HPLC/MS/MS methods and the pharmacokinetic parameters were determined for individual animals from plasma concentration-time data using noncompartmental model 200-202 in Phoenix WinNonlin 6.3.

Where [2] appears, read: selectivity profile, read-out: HDAC Enzyme IC50, HDAC 1.
Setting [3] is: selectivity profile, read-out: HDAC Enzyme IC50, HDAC 6.

Chain of HDAC6 (Q9UBN7 whole entry): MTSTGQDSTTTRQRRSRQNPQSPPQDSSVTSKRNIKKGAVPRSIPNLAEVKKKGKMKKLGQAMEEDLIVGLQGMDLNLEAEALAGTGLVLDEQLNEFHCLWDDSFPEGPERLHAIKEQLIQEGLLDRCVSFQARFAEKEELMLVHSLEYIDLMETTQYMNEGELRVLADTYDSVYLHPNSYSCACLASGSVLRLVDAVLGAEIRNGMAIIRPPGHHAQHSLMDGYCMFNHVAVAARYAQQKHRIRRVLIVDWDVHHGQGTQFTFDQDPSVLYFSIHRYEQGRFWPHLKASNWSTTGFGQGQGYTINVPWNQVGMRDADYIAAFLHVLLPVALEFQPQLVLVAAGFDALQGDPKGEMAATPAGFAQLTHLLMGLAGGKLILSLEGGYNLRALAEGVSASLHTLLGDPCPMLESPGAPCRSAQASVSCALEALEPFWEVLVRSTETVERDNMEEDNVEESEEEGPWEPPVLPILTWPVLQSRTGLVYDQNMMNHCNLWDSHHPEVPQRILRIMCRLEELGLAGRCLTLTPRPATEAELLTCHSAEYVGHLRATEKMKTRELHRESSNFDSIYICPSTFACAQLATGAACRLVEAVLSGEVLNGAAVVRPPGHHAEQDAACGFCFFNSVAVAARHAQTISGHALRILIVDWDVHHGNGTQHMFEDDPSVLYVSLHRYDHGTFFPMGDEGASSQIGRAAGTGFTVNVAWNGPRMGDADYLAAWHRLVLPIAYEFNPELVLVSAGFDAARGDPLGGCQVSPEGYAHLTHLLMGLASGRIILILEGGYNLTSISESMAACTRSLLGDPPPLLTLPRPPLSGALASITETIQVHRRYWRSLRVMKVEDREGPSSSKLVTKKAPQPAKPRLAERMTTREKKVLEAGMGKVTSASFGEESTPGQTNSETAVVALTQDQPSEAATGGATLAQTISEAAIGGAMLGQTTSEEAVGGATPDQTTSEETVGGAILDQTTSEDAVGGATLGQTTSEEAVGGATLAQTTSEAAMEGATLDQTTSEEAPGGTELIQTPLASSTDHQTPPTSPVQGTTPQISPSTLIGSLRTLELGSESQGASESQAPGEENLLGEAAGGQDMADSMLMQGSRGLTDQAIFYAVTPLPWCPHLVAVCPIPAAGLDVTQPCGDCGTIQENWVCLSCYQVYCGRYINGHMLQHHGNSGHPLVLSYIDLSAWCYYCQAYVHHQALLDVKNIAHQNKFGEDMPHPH
Chain of HDAC1 (Q13547 whole entry): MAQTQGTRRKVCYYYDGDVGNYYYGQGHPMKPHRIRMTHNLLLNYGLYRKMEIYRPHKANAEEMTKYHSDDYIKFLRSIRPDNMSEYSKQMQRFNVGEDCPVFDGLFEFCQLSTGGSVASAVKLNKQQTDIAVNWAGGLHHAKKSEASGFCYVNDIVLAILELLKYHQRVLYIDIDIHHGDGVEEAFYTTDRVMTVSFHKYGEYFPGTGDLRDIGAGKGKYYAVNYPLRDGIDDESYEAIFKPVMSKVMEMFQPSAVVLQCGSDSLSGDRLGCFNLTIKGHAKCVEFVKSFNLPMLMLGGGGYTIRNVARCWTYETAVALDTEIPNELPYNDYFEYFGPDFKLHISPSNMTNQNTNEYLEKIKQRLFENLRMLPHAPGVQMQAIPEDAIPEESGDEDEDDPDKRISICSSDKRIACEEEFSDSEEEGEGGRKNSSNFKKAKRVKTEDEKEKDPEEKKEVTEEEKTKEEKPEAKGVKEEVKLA
Chain of HDAC3/NCOR2 (O15379 whole entry, looked up, species assumed): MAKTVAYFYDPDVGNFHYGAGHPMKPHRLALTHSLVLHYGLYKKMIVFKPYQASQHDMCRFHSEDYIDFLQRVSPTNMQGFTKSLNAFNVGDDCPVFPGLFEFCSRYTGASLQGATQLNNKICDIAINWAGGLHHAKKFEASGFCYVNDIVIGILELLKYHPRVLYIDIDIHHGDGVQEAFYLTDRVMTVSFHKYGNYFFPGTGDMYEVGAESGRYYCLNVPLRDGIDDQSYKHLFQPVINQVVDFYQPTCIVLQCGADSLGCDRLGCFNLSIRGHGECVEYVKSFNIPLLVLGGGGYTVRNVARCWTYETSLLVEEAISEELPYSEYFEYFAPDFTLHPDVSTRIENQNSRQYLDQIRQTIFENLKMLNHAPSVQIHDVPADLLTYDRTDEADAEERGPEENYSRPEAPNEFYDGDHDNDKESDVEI
Chain of HDAC3/NCOR2 (Q9Y618 whole entry partner, looked up, species assumed): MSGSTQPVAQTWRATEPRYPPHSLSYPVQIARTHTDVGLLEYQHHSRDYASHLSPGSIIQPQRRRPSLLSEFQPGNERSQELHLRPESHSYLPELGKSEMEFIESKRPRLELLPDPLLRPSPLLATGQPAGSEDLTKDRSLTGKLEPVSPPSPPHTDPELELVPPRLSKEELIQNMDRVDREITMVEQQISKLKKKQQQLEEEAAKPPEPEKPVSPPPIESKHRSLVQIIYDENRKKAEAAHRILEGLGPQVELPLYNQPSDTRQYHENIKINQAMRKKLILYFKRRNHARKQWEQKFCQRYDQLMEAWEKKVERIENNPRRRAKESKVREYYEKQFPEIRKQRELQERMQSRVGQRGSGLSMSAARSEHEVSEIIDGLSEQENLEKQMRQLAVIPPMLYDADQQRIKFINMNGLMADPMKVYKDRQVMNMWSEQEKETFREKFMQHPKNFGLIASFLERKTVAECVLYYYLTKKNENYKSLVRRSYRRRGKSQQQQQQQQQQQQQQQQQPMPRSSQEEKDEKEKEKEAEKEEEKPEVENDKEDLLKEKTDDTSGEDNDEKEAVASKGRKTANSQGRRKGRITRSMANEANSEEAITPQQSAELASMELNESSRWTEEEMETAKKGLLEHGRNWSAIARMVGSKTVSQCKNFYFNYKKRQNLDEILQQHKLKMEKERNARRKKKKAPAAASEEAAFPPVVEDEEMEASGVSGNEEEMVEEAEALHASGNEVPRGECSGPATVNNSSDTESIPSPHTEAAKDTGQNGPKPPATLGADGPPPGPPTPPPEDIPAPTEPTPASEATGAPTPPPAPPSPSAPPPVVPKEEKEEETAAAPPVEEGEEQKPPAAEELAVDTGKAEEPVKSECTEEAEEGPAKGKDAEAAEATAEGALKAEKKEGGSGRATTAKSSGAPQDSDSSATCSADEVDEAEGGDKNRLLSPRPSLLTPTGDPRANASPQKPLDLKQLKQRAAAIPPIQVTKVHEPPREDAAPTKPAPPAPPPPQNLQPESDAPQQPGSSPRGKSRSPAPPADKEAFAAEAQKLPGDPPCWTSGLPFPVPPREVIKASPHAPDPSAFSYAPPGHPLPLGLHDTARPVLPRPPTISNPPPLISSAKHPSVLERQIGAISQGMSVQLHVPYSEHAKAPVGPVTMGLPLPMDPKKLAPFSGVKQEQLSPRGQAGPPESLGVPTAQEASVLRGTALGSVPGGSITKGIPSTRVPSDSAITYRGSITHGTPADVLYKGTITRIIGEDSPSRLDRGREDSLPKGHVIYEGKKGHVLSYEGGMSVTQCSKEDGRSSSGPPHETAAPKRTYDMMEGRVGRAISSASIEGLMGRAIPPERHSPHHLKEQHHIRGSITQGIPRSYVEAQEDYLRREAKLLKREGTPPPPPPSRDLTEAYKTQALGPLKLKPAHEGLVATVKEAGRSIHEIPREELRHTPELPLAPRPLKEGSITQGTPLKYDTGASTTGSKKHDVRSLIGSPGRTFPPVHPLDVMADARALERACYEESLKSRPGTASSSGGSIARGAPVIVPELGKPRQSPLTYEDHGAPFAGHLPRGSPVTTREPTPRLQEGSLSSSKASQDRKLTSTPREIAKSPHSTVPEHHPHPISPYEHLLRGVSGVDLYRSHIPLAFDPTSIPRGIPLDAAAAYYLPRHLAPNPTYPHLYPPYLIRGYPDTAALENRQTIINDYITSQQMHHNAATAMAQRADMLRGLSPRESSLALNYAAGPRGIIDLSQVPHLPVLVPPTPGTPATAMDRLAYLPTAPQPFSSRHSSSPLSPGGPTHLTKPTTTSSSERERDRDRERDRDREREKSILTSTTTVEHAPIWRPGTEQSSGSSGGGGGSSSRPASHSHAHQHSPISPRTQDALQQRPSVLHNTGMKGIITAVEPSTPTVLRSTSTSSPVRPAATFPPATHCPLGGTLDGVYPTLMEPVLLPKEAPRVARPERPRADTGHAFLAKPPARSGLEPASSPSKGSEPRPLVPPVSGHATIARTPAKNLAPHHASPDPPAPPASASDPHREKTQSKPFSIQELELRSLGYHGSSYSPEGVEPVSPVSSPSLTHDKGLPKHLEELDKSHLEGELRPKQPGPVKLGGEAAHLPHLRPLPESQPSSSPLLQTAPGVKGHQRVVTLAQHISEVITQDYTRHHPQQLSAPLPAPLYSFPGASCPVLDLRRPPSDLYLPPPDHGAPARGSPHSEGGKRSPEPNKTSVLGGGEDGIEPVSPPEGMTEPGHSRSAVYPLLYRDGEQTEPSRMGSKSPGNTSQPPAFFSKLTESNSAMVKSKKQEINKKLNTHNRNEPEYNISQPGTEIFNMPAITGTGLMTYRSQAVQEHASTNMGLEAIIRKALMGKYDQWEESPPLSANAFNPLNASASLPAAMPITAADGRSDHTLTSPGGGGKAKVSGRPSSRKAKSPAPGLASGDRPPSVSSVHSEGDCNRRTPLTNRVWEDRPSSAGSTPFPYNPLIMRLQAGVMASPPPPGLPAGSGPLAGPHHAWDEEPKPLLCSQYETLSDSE
Chain of HDAC11 (Q96DB2 whole entry, species assumed): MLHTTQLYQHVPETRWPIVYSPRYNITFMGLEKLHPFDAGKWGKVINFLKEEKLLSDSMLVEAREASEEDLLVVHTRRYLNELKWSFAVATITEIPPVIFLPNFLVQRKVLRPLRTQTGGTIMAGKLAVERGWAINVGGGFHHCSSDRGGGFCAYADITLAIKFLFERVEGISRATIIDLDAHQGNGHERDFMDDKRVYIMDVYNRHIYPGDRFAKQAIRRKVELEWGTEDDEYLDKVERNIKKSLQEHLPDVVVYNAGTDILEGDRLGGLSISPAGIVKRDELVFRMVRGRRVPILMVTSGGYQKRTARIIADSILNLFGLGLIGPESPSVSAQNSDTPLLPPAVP

As for `Fc1ccc(C2(Nc3ncc(-c4nnc(C(F)F)o4)cn3)CC2)cc1` [Example 5, 5-(5-(difluoromethyl)-1,3,4-oxadiazol-2-yl)-N-(1-(4-fluorophenyl)cyclopropyl)pyrimidin-2-amine], the IC50 (commonly the point on the concentration scale where inhibition reaches its midpoint) at HDAC1 (read-out: Human HDAC1 IC50) was more than 100 µM; on HDAC1 (setting [2]), more than 100 µM; at HDAC2, more than 30 µM; at HDAC3/NCOR2, more than 30 µM; on HDAC4, more than 30 µM; at HDAC5, more than 30 µM. The IC50 was 34 nM on HDAC6 (read-out: Human HDAC6 IC50); 34 nM on HDAC6 (setting [3]); more than 30 µM at HDAC7; more than 30 µM on HDAC8; more than 30 µM on HDAC9; more than 30 µM on HDAC10. Besides, the IC50 on HDAC11 is more than 30 µM.
Take `CCS(=O)(=O)NCC(Nc1ncc(-c2nnc(C(F)F)o2)cn1)c1ccc(F)cc1` (stereo not shown) [Example 108, N-(2-((5-(5-(difluoromethyl)-1,3,4-oxadiazol-2-yl)pyrimidin-2-yl)amino)-2-(4-fluorophenyl)ethyl)ethanesulfonamide]: at HDAC1 (read-out: Human HDAC1 IC50), the IC50 is more than 30 µM. For the same compound, at HDAC6 (read-out: Human HDAC6 IC50), the half-maximal inhibitory concentration (IC50) was determined as 27 nM. Besides, in [1], the highest level (Cmax) was 2120 ng/mL and the half-life (commonly the time needed for the level to fall by half in the phase considered) is 138 min.
In the case of `Fc1ccc(C(CC(F)(F)F)Nc2ncc(-c3nnc(C(F)F)o3)cn2)cc1` (stereo not shown) [Example 13, 5-(5-(difluoromethyl)-1,3,4-oxadiazol-2-yl)-N-(3,3,3-trifluoro-1-(4-fluorophenyl)propyl) pyrimidin-2-amine], the IC50 on HDAC1 (read-out: Human HDAC1 IC50), at HDAC1 (setting [2]), on HDAC2, on HDAC3/NCOR2, at HDAC4 and on HDAC5 was more than 30 µM throughout. The IC50 was 36 nM at HDAC6 (read-out: Human HDAC6 IC50); 36 nM on HDAC6 (setting [3]); more than 30 µM at HDAC7; more than 30 µM on HDAC8; more than 30 µM at HDAC9; more than 30 µM at HDAC10. In addition, on HDAC11, the IC50 was more than 30 µM.
Consider `O=S(=O)(NCC(Nc1ncc(-c2nnc(C(F)F)o2)cn1)c1ccc(F)cc1F)C1CC1` (stereo not drawn) [142(+), N-(2-((5-(5-(difluoromethyl)-1,3,4-oxadiazol-2-yl)pyrimidin-2-yl)amino)-2-(2,4-difluorophenyl)ethyl)cyclopropanesulfonamide], for which the IC50 at HDAC1 (read-out: Human HDAC1 IC50) is more than 30 µM. The IC50 on HDAC6 (read-out: Human HDAC6 IC50) is 35 nM. Moreover, in data set [1], the Cmax (in general, the maximum level reached in the sampled fluid or tissue) amounted to 2530 ng/mL and the half-life was 246 min.
The corresponding values for `CS(=O)(=O)NCC(Nc1ncc(-c2nnc(C(F)F)o2)cn1)c1ccc(OC(F)F)cc1F` (single isomer, unassigned) [116(+), N-(2-(4-(difluoromethoxy)-2-fluorophenyl)-2-((5-(5-(difluoromethyl)-1,3,4-oxadiazol-2-yl)pyrimidin-2-yl)amino)ethyl)methanesulfonamide] are more than 30 µM, 17 nM, 1010 ng/mL and 270 min.
The like results for `CC(C)S(=O)(=O)NCC(Nc1ncc(-c2nnc(C(F)F)o2)cn1)c1ccc(F)cc1` (stereo not shown) [Example 109, N-(2-((5-(5-(difluoromethyl)-1,3,4-oxadiazol-2-yl)pyrimidin-2-yl)amino)-2-(4-fluorophenyl)ethyl)propane-2-sulfonamide] were, in that order, more than 30 µM, 37 nM, 678 ng/mL and 204 min.
The corresponding values for `O=S(=O)(NCC(Nc1ncc(-c2nnc(C(F)F)o2)cn1)c1ccc(OC(F)F)cc1F)C1CC1` (stereo not drawn) [150(+), N-(2-(4-(difluoromethoxy)-2-fluorophenyl)-2-((5-(5-(difluoromethyl)-1,3,4-oxadiazol-2-yl)pyrimidin-2-yl)amino)ethyl)cyclopropanesulfonamide] are more than 30 µM, 23 nM, 3390 ng/mL and 558 min.
For the compound `CS(=O)(=O)NCC(Nc1ncc(-c2nnc(C(F)F)o2)cn1)c1ccc(F)c(F)c1` (single isomer, unassigned) [171(+), N-(2-((5-(5-(difluoromethyl)-1,3,4-oxadiazol-2-yl)pyrimidin-2-yl)amino)-2-(3,4-difluorophenyl)ethyl)methanesulfonamide], the IC50 on HDAC1 (read-out: Human HDAC1 IC50) is more than 30 µM; on HDAC6 (read-out: Human HDAC6 IC50) it was 230 nM. Also, the highest concentration (Cmax) in data set [1] came to 2590 ng/mL. The compound also had a half-life in [1] of 198 min.
The corresponding values for `CS(=O)(=O)NCC(Nc1ncc(-c2nnc(C(F)F)o2)cn1)c1ccc(F)cc1F` (single isomer, unassigned) [103(+), N-(2-((5-(5-(difluoromethyl)-1,3,4-oxadiazol-2-yl)pyrimidin-2-yl)amino)-2-(2,4-difluorophenyl)ethyl)methanesulfonamide] are more than 30 µM, 16 nM, 2370 ng/mL and 192 min.
As for `CS(=O)(=O)NCC(Nc1ncc(-c2nnc(C(F)F)o2)cn1)c1ccc(Cl)cc1` (single isomer, unassigned) [173(+), N-(2-(4-chlorophenyl)-2-((5-(5-(difluoromethyl)-1,3,4-oxadiazol-2-yl)pyrimidin-2-yl)amino)ethyl)methanesulfonamide], at HDAC1 (read-out: Human HDAC1 IC50), the IC50 was more than 30 µM. The IC50 at HDAC6 (read-out: Human HDAC6 IC50) came out at 24 nM. In data set [1], the Cmax is 2820 ng/mL and the half-life is 336 min.
